Laboratory results: PubChem BioAssay (NCI)
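Protocol summary: plate cells (96-well), add compound at 5 concentrations, incubate 48 h, interpolate endpoints linearly. TGI denotes the concentration required for complete inhibition of growth.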

Tests used:
Assay in all cases: NCI tumour cell line growth inhibition, 48 h
NCI-H226 lung = tested on: NCI-H226 lung
P388/ADR leukemia = tested on: P388/ADR leukemia
SN12K1 renal = tested on: SN12K1 renal
OVCAR-8 ovarian = tested on: OVCAR-8 ovarian
NCI-H522 lung = tested on: NCI-H522 lung
A549 NSCLC = tested on: A549 NSCLC
KM12 colon = tested on: KM12 colon
HT29 colon = tested on: HT29 colon
UACC-62 melanoma = tested on: UACC-62 melanoma
DMS 114 small cell lung = tested on: DMS 114 small cell lung
NCI-H23 lung = tested on: NCI-H23 lung
IGROV1 ovarian = tested on: IGROV1 ovarian
CAKI-1 renal = tested on: CAKI-1 renal
MALME-3M melanoma = tested on: MALME-3M melanoma
MOLT-4 leukemia = tested on: MOLT-4 leukemia
HL-60(TB) leukemia = tested on: HL-60(TB) leukemia
SF-295 CNS = tested on: SF-295 CNS
M19-MEL melanoma = tested on: M19-MEL melanoma
LOX IMVI melanoma = tested on: LOX IMVI melanoma
P388 leukemia = tested on: P388 leukemia
SN12C renal = tested on: SN12C renal
SK-MEL-28 melanoma = tested on: SK-MEL-28 melanoma
SF-539 CNS = tested on: SF-539 CNS
HOP-62 NSCLC = tested on: HOP-62 NSCLC
SNB-19 CNS = tested on: SNB-19 CNS
CCRF-CEM leukemia = tested on: CCRF-CEM leukemia
HCT-116 colon = tested on: HCT-116 colon
A498 renal = tested on: A498 renal
NCI-H460 lung = tested on: NCI-H460 lung
NCI/ADR-RES ovarian = tested on: NCI/ADR-RES ovarian
COLO 205 colon = tested on: COLO 205 colon
HCT-15 colon = tested on: HCT-15 colon
RXF 393 renal = tested on: RXF 393 renal
DLD-1 colon = tested on: DLD-1 colon
RPMI-8226 leukemia = tested on: RPMI-8226 leukemia
UACC-257 melanoma = tested on: UACC-257 melanoma
HOP-92 NSCLC = tested on: HOP-92 NSCLC
U251 CNS = tested on: U251 CNS
HOP-18 NSCLC = tested on: HOP-18 NSCLC
DMS 273 small cell lung = tested on: DMS 273 small cell lung
SNB-75 CNS = tested on: SNB-75 CNS
OVCAR-3 ovarian = tested on: OVCAR-3 ovarian
KM20L2 colon = tested on: KM20L2 colon
HCC-2998 colon = tested on: HCC-2998 colon
OVCAR-5 ovarian = tested on: OVCAR-5 ovarian
SF-268 CNS = tested on: SF-268 CNS
UO-31 renal = tested on: UO-31 renal
SK-MEL-2 melanoma = tested on: SK-MEL-2 melanoma
XF 498 CNS = tested on: XF 498 CNS
SK-MEL-5 melanoma = tested on: SK-MEL-5 melanoma
SNB-78 CNS = tested on: SNB-78 CNS
EKVX NSCLC = tested on: EKVX NSCLC
OVCAR-4 ovarian = tested on: OVCAR-4 ovarian
SW-620 colon = tested on: SW-620 colon
SK-OV-3 ovarian = tested on: SK-OV-3 ovarian
MCF7 breast = tested on: MCF7 breast
K-562 leukemia = tested on: K-562 leukemia

**Q.** For Nc1nc(N)nc(-c2ccccc2NS(=O)(=O)c2ccc([N+](=O)[O-])cc2)n1, which TGI (NCI-H226 lung) is on record?
**A.** > 100 µM

**Q.** And the TGI (P388/ADR leukemia)?
**A.** > 100 µM

**Q.** And the TGI (SN12K1 renal)?
**A.** > 100 µM

**Q.** What about the TGI (OVCAR-8 ovarian) of the same compound?
**A.** > 100 µM

**Q.** And the TGI (NCI-H522 lung)?
**A.** > 100 µM

**Q.** And the TGI (A549 NSCLC)?
**A.** > 100 µM

**Q.** And the TGI (KM12 colon)?
**A.** > 100 µM

**Q.** And the TGI (HT29 colon)?
**A.** > 100 µM

**Q.** And the TGI (UACC-62 melanoma)?
**A.** > 100 µM

**Q.** What about the TGI (DMS 114 small cell lung) of the same compound?
**A.** > 100 µM

**Q.** What about the TGI (NCI-H23 lung) of the same compound?
**A.** > 100 µM

**Q.** And the TGI (IGROV1 ovarian)?
**A.** > 100 µM

**Q.** What about the TGI (CAKI-1 renal) of the same compound?
**A.** > 34.6 µM

**Q.** And the TGI (MALME-3M melanoma)?
**A.** > 100 µM

**Q.** And the TGI (MOLT-4 leukemia)?
**A.** > 100 µM

**Q.** What about the TGI (HL-60(TB) leukemia) of the same compound?
**A.** 61.5 µM

**Q.** What about the TGI (SF-295 CNS) of the same compound?
**A.** > 100 µM

**Q.** What about the TGI (M19-MEL melanoma) of the same compound?
**A.** > 100 µM

**Q.** What about the TGI (LOX IMVI melanoma) of the same compound?
**A.** > 100 µM

**Q.** And the TGI (P388 leukemia)?
**A.** > 100 µM

**Q.** And the TGI (SN12C renal)?
**A.** > 100 µM

**Q.** And the TGI (SK-MEL-28 melanoma)?
**A.** > 100 µM

**Q.** And the TGI (SF-539 CNS)?
**A.** > 100 µM

**Q.** What about the TGI (HOP-62 NSCLC) of the same compound?
**A.** > 100 µM

**Q.** What about the TGI (SNB-19 CNS) of the same compound?
**A.** > 100 µM

**Q.** And the TGI (CCRF-CEM leukemia)?
**A.** > 100 µM

**Q.** What about the TGI (HCT-116 colon) of the same compound?
**A.** > 100 µM

**Q.** And the TGI (A498 renal)?
**A.** > 100 µM

**Q.** And the TGI (NCI-H460 lung)?
**A.** > 100 µM

**Q.** And the TGI (NCI/ADR-RES ovarian)?
**A.** > 100 µM

**Q.** And the TGI (COLO 205 colon)?
**A.** > 31.6 µM

**Q.** What about the TGI (HCT-15 colon) of the same compound?
**A.** > 100 µM

**Q.** What about the TGI (RXF 393 renal) of the same compound?
**A.** > 100 µM

**Q.** What about the TGI (DLD-1 colon) of the same compound?
**A.** > 100 µM

**Q.** And the TGI (RPMI-8226 leukemia)?
**A.** > 100 µM

**Q.** And the TGI (UACC-257 melanoma)?
**A.** > 100 µM

**Q.** What about the TGI (HOP-92 NSCLC) of the same compound?
**A.** > 100 µM

**Q.** What about the TGI (U251 CNS) of the same compound?
**A.** > 100 µM

**Q.** And the TGI (HOP-18 NSCLC)?
**A.** > 100 µM

**Q.** And the TGI (DMS 273 small cell lung)?
**A.** > 100 µM

**Q.** What about the TGI (SNB-75 CNS) of the same compound?
**A.** > 90.6 µM

**Q.** And the TGI (OVCAR-3 ovarian)?
**A.** > 100 µM

**Q.** And the TGI (KM20L2 colon)?
**A.** > 100 µM

**Q.** What about the TGI (HCC-2998 colon) of the same compound?
**A.** > 100 µM

**Q.** And the TGI (OVCAR-5 ovarian)?
**A.** > 100 µM

**Q.** What about the TGI (SF-268 CNS) of the same compound?
**A.** > 100 µM

**Q.** And the TGI (UO-31 renal)?
**A.** > 100 µM

**Q.** And the TGI (SK-MEL-2 melanoma)?
**A.** > 100 µM

**Q.** And the TGI (XF 498 CNS)?
**A.** 63.5 µM

**Q.** And the TGI (SK-MEL-5 melanoma)?
**A.** > 84.8 µM

**Q.** What about the TGI (SNB-78 CNS) of the same compound?
**A.** > 100 µM

**Q.** And the TGI (EKVX NSCLC)?
**A.** > 100 µM

**Q.** And the TGI (OVCAR-4 ovarian)?
**A.** > 100 µM

**Q.** What about the TGI (SW-620 colon) of the same compound?
**A.** > 100 µM

**Q.** And the TGI (SK-OV-3 ovarian)?
**A.** > 100 µM

**Q.** What about the TGI (MCF7 breast) of the same compound?
**A.** > 100 µM

**Q.** With CCCCC1=C(Br)C(=C(Br)Br)OC1=O as the compound, how does the TGI (NCI-H226 lung) read?
**A.** 9.35 µM

**Q.** And the TGI (P388/ADR leukemia)?
**A.** 5.76 µM

**Q.** And the TGI (SN12K1 renal)?
**A.** 3.96 µM

**Q.** What about the TGI (OVCAR-8 ovarian) of the same compound?
**A.** 11.4 µM

**Q.** And the TGI (NCI-H522 lung)?
**A.** 3.5 µM

**Q.** What about the TGI (A549 NSCLC) of the same compound?
**A.** 33.8 µM

**Q.** What about the TGI (KM12 colon) of the same compound?
**A.** 9.28 µM

**Q.** What about the TGI (HT29 colon) of the same compound?
**A.** 10.2 µM

**Q.** What about the TGI (UACC-62 melanoma) of the same compound?
**A.** 6.51 µM

**Q.** And the TGI (DMS 114 small cell lung)?
**A.** 5.71 µM

**Q.** What about the TGI (NCI-H23 lung) of the same compound?
**A.** 15.8 µM

**Q.** And the TGI (IGROV1 ovarian)?
**A.** 5.92 µM

**Q.** What about the TGI (CAKI-1 renal) of the same compound?
**A.** 5.53 µM

**Q.** What about the TGI (MALME-3M melanoma) of the same compound?
**A.** 5.31 µM

**Q.** What about the TGI (MOLT-4 leukemia) of the same compound?
**A.** 5.66 µM

**Q.** And the TGI (HL-60(TB) leukemia)?
**A.** 5.38 µM

**Q.** What about the TGI (SF-295 CNS) of the same compound?
**A.** 23.7 µM

**Q.** And the TGI (M19-MEL melanoma)?
**A.** 8.42 µM

**Q.** And the TGI (LOX IMVI melanoma)?
**A.** 4.78 µM

**Q.** And the TGI (P388 leukemia)?
**A.** 2.4 µM

**Q.** And the TGI (SN12C renal)?
**A.** 7.92 µM

**Q.** What about the TGI (SK-MEL-28 melanoma) of the same compound?
**A.** 7.78 µM

**Q.** And the TGI (SF-539 CNS)?
**A.** 10.5 µM

**Q.** What about the TGI (HOP-62 NSCLC) of the same compound?
**A.** 19 µM

**Q.** What about the TGI (SNB-19 CNS) of the same compound?
**A.** 20.3 µM

**Q.** And the TGI (CCRF-CEM leukemia)?
**A.** 7.81 µM

**Q.** What about the TGI (HCT-116 colon) of the same compound?
**A.** 8.85 µM

**Q.** And the TGI (A498 renal)?
**A.** 31 µM

**Q.** And the TGI (NCI-H460 lung)?
**A.** 16.8 µM

**Q.** And the TGI (NCI/ADR-RES ovarian)?
**A.** 11.9 µM

**Q.** What about the TGI (COLO 205 colon) of the same compound?
**A.** 8.11 µM

**Q.** What about the TGI (HCT-15 colon) of the same compound?
**A.** 5.55 µM

**Q.** And the TGI (K-562 leukemia)?
**A.** 13 µM

**Q.** What about the TGI (RXF 393 renal) of the same compound?
**A.** 5.95 µM

**Q.** What about the TGI (DLD-1 colon) of the same compound?
**A.** 4.37 µM

**Q.** And the TGI (RPMI-8226 leukemia)?
**A.** 4.67 µM

**Q.** What about the TGI (UACC-257 melanoma) of the same compound?
**A.** 6.16 µM

**Q.** What about the TGI (HOP-92 NSCLC) of the same compound?
**A.** 23.4 µM

**Q.** What about the TGI (U251 CNS) of the same compound?
**A.** 17.1 µM

**Q.** And the TGI (HOP-18 NSCLC)?
**A.** 10.5 µM

**Q.** And the TGI (DMS 273 small cell lung)?
**A.** 8.01 µM

**Q.** And the TGI (SNB-75 CNS)?
**A.** 16.5 µM

**Q.** What about the TGI (OVCAR-3 ovarian) of the same compound?
**A.** 6.05 µM

**Q.** And the TGI (KM20L2 colon)?
**A.** 24.8 µM

**Q.** And the TGI (HCC-2998 colon)?
**A.** 18.1 µM

**Q.** And the TGI (OVCAR-5 ovarian)?
**A.** 30.3 µM

**Q.** And the TGI (SF-268 CNS)?
**A.** 7.9 µM

**Q.** And the TGI (UO-31 renal)?
**A.** 24.2 µM

**Q.** What about the TGI (SK-MEL-2 melanoma) of the same compound?
**A.** 8.49 µM

**Q.** What about the TGI (XF 498 CNS) of the same compound?
**A.** 19.9 µM

**Q.** And the TGI (SK-MEL-5 melanoma)?
**A.** 13.5 µM

**Q.** And the TGI (SNB-78 CNS)?
**A.** 37 µM

**Q.** What about the TGI (EKVX NSCLC) of the same compound?
**A.** 10.6 µM

**Q.** What about the TGI (OVCAR-4 ovarian) of the same compound?
**A.** 3.32 µM

**Q.** And the TGI (SW-620 colon)?
**A.** 12.4 µM

**Q.** What about the TGI (SK-OV-3 ovarian) of the same compound?
**A.** 31.4 µM

**Q.** And the TGI (MCF7 breast)?
**A.** 15.4 µM
